ChEMBL document CHEMBL1201862, “PubChem BioAssay data set” (2004)
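How tested: cells in 96-well plates exposed to compound for 48 hours at five concentrations. GI50 is the concentration that inhibits growth by half.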 Activity calls are given as the source filed them. Rule as the data show it: active = GI50 up to about 1.1 µM and inactive = higher.

Key:
Experiment in all cases: DTP human tumour cell line panel, 48 h
NCI-H460 = system: NCI-H460
SF-268 = system: SF-268
MDA-MB-231 = system: MDA-MB-231
SK-OV-3 = system: SK-OV-3
OVCAR-4 = system: OVCAR-4
SF-539 = system: SF-539
MDA-N = system: MDA-N
OVCAR-5 = system: OVCAR-5
A549 = system: A549
SN12C = system: SN12C
OVCAR-3 = system: OVCAR-3
SK-MEL-28 = system: SK-MEL-28
NCI/ADR-RES = system: NCI/ADR-RES
Malme-3M = system: Malme-3M
RPMI-8226 = system: RPMI-8226
T47D = system: T47D
MDA-MB-435 = system: MDA-MB-435
HCT-15 = system: HCT-15
HOP-62 = system: HOP-62
HOP-92 = system: HOP-92

| Structure (SMILES) | GI50 (NCI-H460) | GI50 (SF-268) | GI50 (MDA-MB-231) | GI50 (SK-OV-3) | GI50 (OVCAR-4) | GI50 (SF-539) | GI50 (MDA-N) | GI50 (OVCAR-5) | GI50 (A549) | GI50 (SN12C) | GI50 (OVCAR-3) | GI50 (SK-MEL-28) | GI50 (NCI/ADR-RES) | GI50 (Malme-3M) | GI50 (RPMI-8226) | GI50 (T47D) | GI50 (MDA-MB-435) | GI50 (HCT-15) | GI50 (HOP-62) | GI50 (HOP-92) |
| --- | --- | --- | --- | --- | --- | --- | --- | --- | --- | --- | --- | --- | --- | --- | --- | --- | --- | --- | --- | --- |
| CC(C)(C)c1ccc(NS(=O)(=O)c2ccc(N)cc2)cc1 | 33.7 µM (inactive) | 26.9 µM (inactive) | 25.8 µM (inactive) | 3.29 µM (inactive) | 35.8 µM (inactive) | 25.8 µM (inactive) | 23.6 µM (inactive) | 31.5 µM (inactive) | 27.1 µM (inactive) | 22.3 µM (inactive) | 2.76 µM (inactive) | 27.2 µM (inactive) | 25.4 µM (inactive) | 19.5 µM (inactive) | 11.6 µM (inactive) | 28.3 µM (inactive) | 29.9 µM (inactive) | 30.3 µM | 0.634 µM (active) |  |
| Cn1c(=O)sc2cc(C(=S)N3CCN(c4ccccc4)CC3)ccc21 | 51.9 µM (inactive) | 29.9 µM (inactive) | 27.6 µM (inactive) | 32.3 µM (inactive) |  | 24.4 µM (inactive) | > 100 µM (inactive) | 97.1 µM (inactive) |  | 50.6 µM (inactive) | 54.8 µM (inactive) | 97.1 µM (inactive) | 50 µM (inactive) | 42.3 µM (inactive) | > 100 µM (inactive) |  | > 100 µM (inactive) | 39.4 µM | 18.5 µM (inactive) |  |
| CN1CC2=C(N=C(S)NC2c2ccccc2)/C(=C/c2ccccc2)C1 (centres undefined) | 32.1 µM (inactive) | > 100 µM (inactive) | > 10 µM (inactive) | 22.2 µM (inactive) |  | 83.9 µM (inactive) | 35.7 µM (inactive) | > 100 µM (inactive) | 30.3 µM (inactive) | 51.8 µM (inactive) | 99.8 µM (inactive) | 27.6 µM (inactive) | > 100 µM (inactive) | 30.1 µM (inactive) | 46.6 µM (inactive) | 44.8 µM (inactive) | 46.8 µM (inactive) | 33 µM | > 100 µM (inactive) |  |
| COc1ccc(N[S+]([O-])c2c(C)cc(C)cc2C)cc1 (centres undefined) | 35.6 µM (inactive) | 21.6 µM (inactive) | 80.2 µM (inactive) |  | 86.5 µM (inactive) | 19.9 µM (inactive) | 93.1 µM (inactive) | > 100 µM (inactive) | 26.4 µM (inactive) | > 100 µM (inactive) | 61.9 µM (inactive) | > 100 µM (inactive) | 49.8 µM (inactive) | 20.3 µM (inactive) | 45.3 µM (inactive) | 34 µM (inactive) | 21.2 µM (inactive) | 18.2 µM | 72.1 µM (inactive) |  |
| CC(=O)OCCCOCn1c(Cc2ccccc2)c(C)c(=O)[nH]c1=O | > 100 µM (inactive) | > 100 µM (inactive) | > 100 µM (inactive) | > 100 µM (inactive) | > 100 µM (inactive) | > 100 µM (inactive) | > 100 µM (inactive) | > 100 µM (inactive) | > 100 µM (inactive) | > 100 µM (inactive) | > 100 µM (inactive) | > 100 µM (inactive) |  | > 100 µM (inactive) | > 100 µM (inactive) | > 100 µM (inactive) | > 100 µM (inactive) | > 100 µM | > 100 µM (inactive) | > 100 µM (inactive) |
| Cc1nc2c(cc1C(=O)NN)c(=O)n(C)c(=O)n2C | > 100 µM (inactive) |  | > 100 µM (inactive) | > 100 µM (inactive) | > 100 µM (inactive) |  | > 100 µM (inactive) | > 100 µM (inactive) | > 100 µM (inactive) | > 100 µM (inactive) | > 100 µM (inactive) | > 100 µM (inactive) | > 100 µM (inactive) |  | > 100 µM (inactive) | > 100 µM (inactive) | > 100 µM (inactive) | > 100 µM | > 100 µM (inactive) |  |
| NC(=O)CNC(=O)[C@@H]1C[C@@H](OCCC(=O)O)CN1C(=O)OCc1ccccc1 | > 100 µM (inactive) | > 100 µM (inactive) | > 100 µM (inactive) | > 100 µM (inactive) | > 100 µM (inactive) |  | > 100 µM (inactive) | > 100 µM (inactive) | > 100 µM (inactive) | > 100 µM (inactive) | > 100 µM (inactive) | > 100 µM (inactive) | > 100 µM (inactive) | > 100 µM (inactive) | > 100 µM (inactive) | > 100 µM (inactive) | > 100 µM (inactive) | > 100 µM | > 100 µM (inactive) |  |
| CNc1cc(OCc2ccccc2)c(OC)cc1C(=O)N1CCC[C@H]1CO |  | > 100 µM (inactive) | > 100 µM (inactive) | > 100 µM (inactive) | 70.1 µM (inactive) | > 100 µM (inactive) | > 100 µM (inactive) | > 100 µM (inactive) | > 100 µM (inactive) | > 100 µM (inactive) |  | > 100 µM (inactive) | > 100 µM (inactive) | > 100 µM (inactive) |  | > 100 µM (inactive) | > 100 µM (inactive) | > 100 µM | > 100 µM (inactive) |  |
| O=C(NNC(=O)c1ccco1)c1ccco1 | > 100 µM (inactive) | > 100 µM (inactive) | > 100 µM (inactive) | > 100 µM (inactive) | > 100 µM (inactive) | > 100 µM (inactive) | > 100 µM (inactive) | > 100 µM (inactive) | > 100 µM (inactive) | > 100 µM (inactive) | > 100 µM (inactive) | > 100 µM (inactive) | > 100 µM (inactive) | 39.6 µM (inactive) | > 100 µM (inactive) | > 100 µM (inactive) | > 100 µM (inactive) | > 100 µM | > 100 µM (inactive) |  |
| C=CCOCn1cc(C)c(=O)[nH]c1=O | > 100 µM (inactive) | > 100 µM (inactive) | > 100 µM (inactive) | > 100 µM (inactive) |  | > 100 µM (inactive) | > 100 µM (inactive) |  | > 100 µM (inactive) | > 100 µM (inactive) |  | > 100 µM (inactive) |  | > 100 µM (inactive) | > 100 µM (inactive) | > 100 µM (inactive) | > 100 µM (inactive) | > 100 µM | > 100 µM (inactive) |  |
| NC(Cc1c2ccccc2cc2ccccc12)C(=O)O (centres undefined) | 59.8 µM (inactive) | > 100 µM (inactive) | > 100 µM (inactive) | > 100 µM (inactive) | > 100 µM (inactive) | > 100 µM (inactive) |  | > 100 µM (inactive) | > 100 µM (inactive) | 54.3 µM (inactive) | > 100 µM (inactive) | > 100 µM (inactive) | > 100 µM (inactive) | 80.7 µM (inactive) |  | > 100 µM (inactive) | > 100 µM (inactive) | 68.1 µM | 67.3 µM (inactive) | 61.1 µM (inactive) |
| COc1ccc(NCn2nc(CCCCCCCCc3nn(CNc4ccc(OC)cc4)c(=S)o3)oc2=S)cc1 | > 100 µM (inactive) | > 100 µM (inactive) | > 100 µM (inactive) | > 100 µM (inactive) | > 100 µM (inactive) |  | > 100 µM (inactive) | > 100 µM (inactive) | > 100 µM (inactive) | > 100 µM (inactive) |  | > 100 µM (inactive) | > 100 µM (inactive) | > 100 µM (inactive) | > 100 µM (inactive) |  | > 100 µM (inactive) | > 100 µM | > 100 µM (inactive) | > 100 µM (inactive) |
| O=C1N(c2ccccc2)N=C2c3ccncc3C3=NN(c4ccccc4)C(=O)C123 (centres undefined) | 5.32 µM (inactive) |  | > 100 µM (inactive) | > 100 µM (inactive) | > 63 µM (inactive) | 14.5 µM (inactive) |  | > 65.2 µM (inactive) | > 32.7 µM (inactive) | > 100 µM (inactive) | > 100 µM (inactive) | > 22 µM (inactive) | > 27.4 µM (inactive) | > 100 µM (inactive) |  | 2.26 µM (inactive) | 4.36 µM (inactive) | 13.2 µM | > 100 µM (inactive) | > 100 µM (inactive) |
| Oc1c(OCc2nnc(CCCCCCCCc3nnc(COc4ccc5ccccc5c4O)o3)o2)ccc2ccccc12 | > 100 µM (inactive) | 85.5 µM (inactive) | 91.8 µM (inactive) | 44.5 µM (inactive) | > 100 µM (inactive) |  | > 100 µM (inactive) | > 100 µM (inactive) | 57.3 µM (inactive) | 83.9 µM (inactive) |  | > 100 µM (inactive) | 64 µM (inactive) | > 100 µM (inactive) | > 100 µM (inactive) |  | > 100 µM (inactive) | > 100 µM |  | 43 µM (inactive) |
| c1cc2cc(Cc3ccc4[nH]ccc4c3)ccc2[nH]1 | 15.8 µM (inactive) | 20.6 µM (inactive) | 16.5 µM (inactive) | 19.5 µM (inactive) | 7.74 µM (inactive) | 16.5 µM (inactive) | 12.9 µM (inactive) | 19.5 µM (inactive) | 16.2 µM (inactive) | 17.4 µM (inactive) | 12.8 µM (inactive) | 26.4 µM (inactive) |  | 15.2 µM (inactive) | > 10 µM (inactive) | 15.6 µM (inactive) | 16.4 µM (inactive) | 13.9 µM | 15.7 µM (inactive) | 15.2 µM (inactive) |
| Cc1cc(S(N)(=O)=O)c(SCc2nc(N)nc(N(C)C)n2)cc1Cl | > 10 µM (inactive) | > 10 µM (inactive) |  | > 10 µM (inactive) | > 10 µM (inactive) | > 10 µM (inactive) | > 10 µM (inactive) | > 10 µM (inactive) | > 10 µM (inactive) | > 10 µM (inactive) | > 10 µM (inactive) | > 10 µM (inactive) | > 10 µM (inactive) | > 10 µM (inactive) | > 10 µM (inactive) | > 10 µM (inactive) |  | > 10 µM | > 10 µM (inactive) | > 10 µM (inactive) |
